Measured values published in US20110251379A1, “COMPOUNDS USEFUL FOR TREATING NEURODEGENERATIVE DISORDERS” (Satori Pharmaceuticals, Inc., priority 2010, published 2011).
Like-named read-outs stand apart in the source and are kept apart here.

Assays:
Assay type in all cases: cell-based
[1] = test system: Aβ-42; test: MSD Human (6E10) Ab 3-PLEX elisa, conditioned media of 2B7 cells: Aβ-42; settings: for IC50: Aβ-42 (superscript c)
Experimental: (§1) Assays were conducted to determine the ability of a Compound of Formula I to modulate […], and Aβ-38.
(§2) Plates with capture antibodies were blocked for 1-2 hours at room temperature with 150 μL of the manufactures blocking reagent.
(§3) Conditioned Media: • Cultured 2B7 cells in 96 well plate with 250 uL of media per well until confluent; • Prepared serial dilutions of compounds in DMSO at 100× the final desired concentration; • Washed wells with 2B7 cells 1× with 250 uL of media; • Diluted DMSO stocks 1:100 into media: • Added 250 μL of media containing compounds (1% DMSO) to wells with 2B7 cells for 5 hours at 37° C.
(§4) Elisa Sample Prep: • Diluted conditioned media: 1 part media with 1% DMSO and 1 part blocking buffer; • 150 μL of the 250 μL of conditioned media were used.
(§5) […] CURVE SAMPLE PREP: Prepared per manufacturer's protocol (see above) • Seven point standard curve samples were prepared that contained Aβ-42, Aβ-40, and Aβ-38. The highest concentration of Aβ-42 and Aβ-3-38 was 3,000 pg/mL and the highest concentration of Aβ-40 was 10,000 pg/mL. Subsequent serial dilutions were 1:3 and the final composition of each sample was 1 part blocking buffer and 1 part cell medium containing 1% DMSO.
(§6) Overnight Sample Incubation: • Blocked plates are washed 5× with MSD wash buffer with a plate washer • 25 uL of detection antibody and blocker G reagent in MSD blocking solution is added • 25 uL of samples (1 part conditioned media containing 1% DMSO and 1 part MSD blocking buffer) are then added. • plates are incubated overnight at 4 degrees C. or 2 hours at room temp
(§7) Final Wash and Readout: • Wash wells 5× with MSD wash buffer • Added 150 μL 2×MSD read buffer • Read with MSD imager.
(§8) A-Beta peptide levels for each peptide are calculated from the standard curve using the MSD software provided with the MSD 2400 Imager. Percent vehicle values for each compound dosage were then calculated and fit to a 4 parameter curve generating IC50 values.

[2] = test system: Aβ-40; test: MSD Human (6E10) Ab 3-PLEX elisa, conditioned media of 2B7 cells: Aβ-40; settings: for IC50: Aβ-40 (superscript b); for inhibition at 20 µM / % Inh. (range): Aβ-40, 20 μM
Experimental: as §1, §2, §3, §4, §5, §6, §7, §8

[3] = test system: Aβ-38; test: MSD Human (6E10) Ab 3-PLEX elisa, conditioned media of 2B7 cells: Aβ-38
Experimental: as §1, §2, §3, §4, §5, §6, §7, §8

[4] = Homo sapiens, read-out: IC50 range
[5] = Homo sapiens, Aβ-38 (superscript a), read-out: 50% reduction value
[6] = Homo sapiens, read-out: 50% reduction value
[7] = Aβ-38 (superscript a), read-out: 50% reduction value
[8] = Aβ-38 (superscript a), read-out: IC50 range

C[C@@H]1CC(CNC(C(=O)O)C(F)(F)F)OC2[C@H]1[C@@]1(C)CC[C@@]34C[C@@]35CC[C@H](O[C@H]3CN(C(=O)CC6CC6)CCO3)C(C)(C)[C@@H]5CCC4[C@]1(C)[C@H]2O (some centres unmarked)
IC50 [1, 4]: 1000 to 10000 nM
IC50 [2, 4]: 1000 to 10000 nM

CC(=O)O[C@H](C(C)C)C1C[C@@H](C)[C@H]2C(O1)[C@H](O)[C@@]1(C)C3CC[C@H]4C(C)(C)[C@@H](O[C@H]5CN(C(=O)C(C)C)CCO5)CC[C@@]45C[C@@]35CC[C@]21C (some centres unmarked)
IC50 [3, 5]: < 1000 nM
IC50 ([3]; Homo sapiens, Aβ-38 (superscript a), read-out: IC50 range): < 1000 nM
IC50 [1, 6]: < 1000 nM
IC50 [1, 4]: < 1000 nM
IC50 [2, 6]: < 1000 nM

COC(=O)NCC1C[C@@H](C)[C@H]2C(O1)[C@H](O)[C@@]1(C)C3CC[C@H]4C(C)(C)[C@@H](O)CC[C@@]45C[C@@]35CC[C@]21C (some centres unmarked)
IC50 [3, 5]: > 10000 nM
inhibition at 20 µM ([1]; Homo sapiens, Aβ-42, 20 μM): 25 to 75%
inhibition at 20 µM ([2]; Homo sapiens): 25 to 75%

COC(=O)N(C)CC1C[C@@H](C)[C@H]2C(O1)[C@H](O)[C@@]1(C)C3CC[C@H]4C(C)(C)[C@@H](O)CC[C@@]45C[C@@]35CC[C@]21C (some centres unmarked)
IC50 [3, 5]: 1000 to 10000 nM
inhibition at 20 µM ([1]; Homo sapiens, Aβ-42, 20 μM): 25 to 75%
IC50 [2, 6]: > 10000 nM

C[C@@H]1CC(CNC(=O)N(C)C)OC2[C@H]1[C@@]1(C)CC[C@@]34C[C@@]35CC[C@H](O)C(C)(C)[C@@H]5CCC4[C@]1(C)[C@H]2O (some centres unmarked)
IC50 [3, 5]: > 10000 nM
inhibition at 20 µM ([1]; Homo sapiens, Aβ-42, 20 μM): < 25%
inhibition at 20 µM ([2]; Homo sapiens): 25 to 75%

C[C@@H]1CC(CN(C)C(=O)N(C)C)OC2[C@H]1[C@@]1(C)CC[C@@]34C[C@@]35CC[C@H](O)C(C)(C)[C@@H]5CCC4[C@]1(C)[C@H]2O (some centres unmarked)
IC50 [3, 5]: 1000 to 10000 nM
inhibition at 20 µM ([1]; Homo sapiens, Aβ-42, 20 μM): 25 to 75%
inhibition at 20 µM ([2]; Homo sapiens): 25 to 75%

CC1CC(C(OC(=O)C2CC2)C(C)(C)O)OC2C1C1(C)CCC34CC35CCC(OC3CN(C6COC6)CCO3)C(C)(C)C5CCC4C1(C)C2O (centres unmarked)
IC50 [3, 7]: 1000 to 10000 nM
IC50 [3, 8]: < 1000 nM
IC50 ([1]; read-out: 50% reduction value): 1000 to 10000 nM
IC50 ([2]; read-out: 50% reduction value): 1000 to 10000 nM

CC1CC(C(OC(=O)C2CCOC2)C(C)(C)O)OC2C1C1(C)CCC34CC35CCC(OC3CN(C6COC6)CCO3)C(C)(C)C5CCC4C1(C)C2O (centres unmarked)
IC50 [3, 7]: 1000 to 10000 nM
IC50 [3, 8]: < 1000 nM
IC50 ([1]; read-out: 50% reduction value): 1000 to 10000 nM
IC50 ([2]; read-out: 50% reduction value): 1000 to 10000 nM

CC(C)CC(=O)OC(C1CC(C)C2C(O1)C(O)C1(C)C3CCC4C(C)(C)C(OC5CN(C6COC6)CCO5)CCC45CC35CCC21C)C(C)(C)O (centres unmarked)
IC50 range (nM) ([3]; Aβ-38 (superscript a)): A- B
IC50 [3, 7]: 1000 to 10000 nM
IC50 ([1]; read-out: 50% reduction value): 1000 to 10000 nM
IC50 ([1]; read-out: IC50 range): 1000 to 10000 nM
IC50 ([2]; read-out: 50% reduction value): 1000 to 10000 nM
IC50 ([2]; read-out: IC50 range): 1000 to 10000 nM

CC1CC(C(OC(=O)CC2CC2)C(C)(C)O)OC2C1C1(C)CCC34CC35CCC(OC3CN(C6COC6)CCO3)C(C)(C)C5CCC4C1(C)C2O (centres unmarked)
IC50 [3, 7]: < 1000 nM
IC50 [3, 8]: < 1000 nM
IC50 ([1]; read-out: 50% reduction value): < 1000 nM
IC50 ([1]; read-out: IC50 range): < 1000 nM
IC50 ([2]; read-out: 50% reduction value): 1000 to 10000 nM
IC50 ([2]; read-out: IC50 range): 1000 to 10000 nM

CCC1CC(C)C2C(O1)C(O)C1(C)C3CCC4C(C)(C)C(O)CCC45CC35CCC21C (centres unmarked)
% Inh. (range) ([3]; Aβ-38, 20 μM): E (% inhibition of 25-75%)
% Inh. (range) ([1]; Aβ-42, 20 μM): F (% inhibition of <25%)
% Inh. (range) [2]: E (% inhibition of 25-75%)

CC1CC(C2OCC(=O)OC2(C)C)OC2C1C1(C)CCC34CC35CCC(OC3CN(C6COC6)CCO3)C(C)(C)C5CCC4C1(C)C2O (centres unmarked)
IC50 [3, 7]: 1000 to 10000 nM
IC50 ([1]; read-out: 50% reduction value): 1000 to 10000 nM
IC50 ([2]; read-out: 50% reduction value): 1000 to 10000 nM

CC1CC(C(OC(=O)C2CCOCC2)C(C)(C)O)OC2C1C1(C)CCC34CC35CCC(OC3CN(C6COC6)CCO3)C(C)(C)C5CCC4C1(C)C2O (centres unmarked)
IC50 [3, 7]: < 1000 nM
IC50 [3, 8]: < 1000 nM
IC50 ([1]; read-out: 50% reduction value): < 1000 nM
IC50 ([2]; read-out: 50% reduction value): 1000 to 10000 nM
IC50 ([2]; read-out: IC50 range): 1000 to 10000 nM

COC1C2OC(C(OC(=O)C3CC3)C(C)(C)O)CC(C)C2C2(C)CCC34CC35CCC(OC3CNCCO3)C(C)(C)C5CCC4C12C (centres unmarked)
IC50 [3, 7]: 1000 to 10000 nM
IC50 ([1]; read-out: 50% reduction value): 1000 to 10000 nM
% Inh. (range) [2]: E^b (20 μM) (% inhibition of 25-75%)
